Assay results as given in ChEMBL document CHEMBL1151615, “Trichothecenes, 1: The synthesis of 4-deoxyverrucarol from verrucarol and diacetoxyscirpenol” (J Nat Prod, 1984).
Values after ≈ are worked out from the molar mass of the structure shown.

Assays:
[1] = Toxicity in mouse assessed as 50% inhibition of protein synthesis; assay type: organism-based; conditions: in vivo, read-out: Activity
[2] = organism: Mus musculus; assay: Skin toxicity in mouse; assay type: organism-based; conditions: in vivo

SMILES	IC50 [1] [µg/mL]	MED [2]
CC1=C[C@H]2O[C@@H]3C[C@@H](O)[C@](C)([C@@]2(CO)CC1)[C@]31CO1 [VERRUCAROL]	15.8 (≈ 59.3 µM)	>= 500 ng
CC1=C[C@H]2O[C@@H]3CC[C@](C)([C@@]2(CO)CC1)[C@]31CO1 [DEOXYVERRUCAROL]	62.2 (≈ 248 µM)	>= 500 ng
CC(=O)OC[C@]12C[C@H](OC(=O)CC(C)C)C(C)=C[C@H]1O[C@@H]1[C@H](O)[C@@H](OC(C)=O)[C@@]2(C)[C@]12CO2 [T-2 TOXIN]	0.005 (≈ 0.0107 µM)	50.2 ng
